Source: ChEMBL document CHEMBL1201862, “PubChem BioAssay data set” (2004)
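Five compound concentrations were applied to cells in 96-well plates for 48 hours; endpoints were derived by simple linear interpolation of the resulting dose-response curve. GI50 = concentration required for 50% inhibition of growth.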 Calls of active or inactive are those of the source. Cut-off read from the data, not from the text of the source: active = GI50 up to about 1.1 µM and inactive = higher.

How the values were obtained:
Assay in all cases: growth of human tumour cells (NCI), 48 h
SF-539 = test system: SF-539
MDA-MB-435 = test system: MDA-MB-435
SW-620 = test system: SW-620
A498 = test system: A498
NCI-H226 = test system: NCI-H226
TK-10 = test system: TK-10
NCI-H522 = test system: NCI-H522
HL-60 = test system: HL-60
BT-549 = test system: BT-549
NCI-H460 = test system: NCI-H460
SN12C = test system: SN12C
CAKI-1 = test system: CAKI-1
MDA-N = test system: MDA-N
CCRF-CEM = test system: CCRF-CEM
NCI-H23 = test system: NCI-H23
HCT-15 = test system: HCT-15
SK-MEL-2 = test system: SK-MEL-2
OVCAR-5 = test system: OVCAR-5
SNB-19 = test system: SNB-19
RXF 393 = test system: RXF 393

## C=CCOc1cccc(C2(O)c3ccccc3C3=NCCCN32)c1 (configuration not stated)
SF-539
  GI50: 15.8 µM (inactive)
MDA-MB-435
  GI50: 13 µM (inactive)
SW-620
  GI50: 11.9 µM (inactive)
A498
  GI50: 21.8 µM (inactive)
NCI-H226
  GI50: 3.38 µM (inactive)
TK-10
  GI50: 33.3 µM (inactive)
NCI-H522
  GI50: 19.5 µM (inactive)
HL-60
  GI50: 1.47 µM (inactive)
BT-549
  GI50: > 100 µM (inactive)
NCI-H460
  GI50: 16.8 µM (inactive)
SN12C
  GI50: 31.1 µM (inactive)
CAKI-1
  GI50: 34.7 µM (inactive)
MDA-N
  GI50: 17.1 µM (inactive)
CCRF-CEM
  GI50: 15.4 µM (inactive)
NCI-H23
  GI50: 10.3 µM (inactive)
HCT-15
  GI50: 20.6 µM
SK-MEL-2
  GI50: 1.72 µM (inactive)
OVCAR-5
  GI50: 29.7 µM (inactive)
SNB-19
  GI50: 2.45 µM (inactive)

## Cc1c(N2C(=O)/C(=C/C=C/c3ccccc3)N=C2c2ccccc2)c(=O)n(-c2ccccc2)n1C
SF-539
  GI50: 21.3 µM (inactive)
MDA-MB-435
  GI50: 17 µM (inactive)
SW-620
  GI50: 31.6 µM (inactive)
RXF 393
  GI50: 17.9 µM (inactive)
NCI-H226
  GI50: 24.7 µM (inactive)
TK-10
  GI50: 32.9 µM (inactive)
NCI-H522
  GI50: 16 µM (inactive)
HL-60
  GI50: 11.8 µM (inactive)
BT-549
  GI50: 20.1 µM (inactive)
NCI-H460
  GI50: 29.4 µM (inactive)
SN12C
  GI50: 24.5 µM (inactive)
CAKI-1
  GI50: 37.8 µM (inactive)
MDA-N
  GI50: 17.8 µM (inactive)
CCRF-CEM
  GI50: 27.2 µM (inactive)
NCI-H23
  GI50: 22 µM (inactive)
HCT-15
  GI50: 5.45 µM
SK-MEL-2
  GI50: 21.8 µM (inactive)
OVCAR-5
  GI50: 24.8 µM (inactive)

## CCN(CC)CCCC(C)Nc1ccnc(/C=C/c2ccc(Cl)cc2)c1 (configuration not stated)
SF-539
  GI50: 1.67 µM (inactive)
MDA-MB-435
  GI50: 1.56 µM (inactive)
SW-620
  GI50: 1.54 µM (inactive)
TK-10
  GI50: 2.38 µM (inactive)
NCI-H522
  GI50: 1.63 µM (inactive)
HL-60
  GI50: 2.07 µM (inactive)
BT-549
  GI50: 2.19 µM (inactive)
NCI-H460
  GI50: 2.69 µM (inactive)
SN12C
  GI50: 2.07 µM (inactive)
CAKI-1
  GI50: 2.29 µM (inactive)
MDA-N
  GI50: 1.83 µM (inactive)
CCRF-CEM
  GI50: 1.2 µM (inactive)
NCI-H23
  GI50: 10.1 µM (inactive)
HCT-15
  GI50: 1.82 µM
SK-MEL-2
  GI50: 2.11 µM (inactive)
OVCAR-5
  GI50: 2.61 µM (inactive)
SNB-19
  GI50: 3.4 µM (inactive)

## NC1CNC(=O)c2cscc21 (configuration not stated)
MDA-MB-435
  GI50: > 100 µM (inactive)
SW-620
  GI50: > 100 µM (inactive)
RXF 393
  GI50: > 100 µM (inactive)
A498
  GI50: > 100 µM (inactive)
NCI-H522
  GI50: > 100 µM (inactive)
HL-60
  GI50: > 100 µM (inactive)
BT-549
  GI50: > 100 µM (inactive)
NCI-H460
  GI50: > 100 µM (inactive)
SN12C
  GI50: > 100 µM (inactive)
CAKI-1
  GI50: > 100 µM (inactive)
MDA-N
  GI50: > 100 µM (inactive)
CCRF-CEM
  GI50: > 100 µM (inactive)
NCI-H23
  GI50: > 100 µM (inactive)
HCT-15
  GI50: > 100 µM
OVCAR-5
  GI50: > 100 µM (inactive)
SNB-19
  GI50: > 100 µM (inactive)

## CCOc1ccccc1/C=C1\NC(=O)N(/C=C2\C(=O)Oc3ccccc3C2=O)C1=O
SF-539
  GI50: 78.5 µM (inactive)
MDA-MB-435
  GI50: 42.6 µM (inactive)
SW-620
  GI50: 51.5 µM (inactive)
RXF 393
  GI50: 9.82 µM (inactive)
NCI-H226
  GI50: 35.5 µM (inactive)
TK-10
  GI50: 24.8 µM (inactive)
NCI-H522
  GI50: 29.2 µM (inactive)
HL-60
  GI50: 20.5 µM (inactive)
BT-549
  GI50: 50.9 µM (inactive)
NCI-H460
  GI50: 39.4 µM (inactive)
SN12C
  GI50: 43.6 µM (inactive)
CAKI-1
  GI50: 99.1 µM (inactive)
MDA-N
  GI50: 42 µM (inactive)
CCRF-CEM
  GI50: 24.2 µM (inactive)
NCI-H23
  GI50: 31.3 µM (inactive)
HCT-15
  GI50: 53.8 µM
SK-MEL-2
  GI50: 45.9 µM (inactive)
OVCAR-5
  GI50: > 100 µM (inactive)
SNB-19
  GI50: 61.7 µM (inactive)

## Cc1ccc(OC(=O)N2C/C(=C\c3ccccc3)C(=O)/C(=C/c3ccccc3)C2)cc1
SF-539
  GI50: 26.4 µM (inactive)
SW-620
  GI50: 4.47 µM (inactive)
RXF 393
  GI50: 20.1 µM (inactive)
A498
  GI50: > 66.5 µM (inactive)
NCI-H226
  GI50: 56.5 µM (inactive)
TK-10
  GI50: 32.1 µM (inactive)
NCI-H522
  GI50: 13 µM (inactive)
HL-60
  GI50: 3.84 µM (inactive)
BT-549
  GI50: 29 µM (inactive)
NCI-H460
  GI50: 53 µM (inactive)
SN12C
  GI50: 24.8 µM (inactive)
CAKI-1
  GI50: 49.9 µM (inactive)
MDA-N
  GI50: 4.02 µM (inactive)
CCRF-CEM
  GI50: 3.2 µM (inactive)
NCI-H23
  GI50: 26.4 µM (inactive)
HCT-15
  GI50: 26.3 µM
SK-MEL-2
  GI50: 42.6 µM (inactive)
OVCAR-5
  GI50: 76 µM (inactive)
SNB-19
  GI50: 43.5 µM (inactive)

## [O-][Cl+3]([O-])([O-])[O-].[O-][Cl+3]([O-])([O-])[O-].c1ccn2c(N3CCCC3)[n+]3c4ccccc4n4c(N5CCCC5)[n+]5ccccc5c4c3c2c1
SF-539
  GI50: 57.9 µM (inactive)
MDA-MB-435
  GI50: > 100 µM (inactive)
SW-620
  GI50: > 100 µM (inactive)
RXF 393
  GI50: 38.3 µM (inactive)
A498
  GI50: > 100 µM (inactive)
NCI-H226
  GI50: 0.745 µM (active)
TK-10
  GI50: > 100 µM (inactive)
NCI-H522
  GI50: 64.1 µM (inactive)
HL-60
  GI50: > 100 µM (inactive)
BT-549
  GI50: 30.9 µM (inactive)
NCI-H460
  GI50: 94.4 µM (inactive)
SN12C
  GI50: 8 µM (inactive)
CAKI-1
  GI50: > 100 µM (inactive)
CCRF-CEM
  GI50: > 100 µM (inactive)
NCI-H23
  GI50: 54.5 µM (inactive)
HCT-15
  GI50: > 100 µM
SK-MEL-2
  GI50: 39.2 µM (inactive)
OVCAR-5
  GI50: > 100 µM (inactive)
SNB-19
  GI50: 29.4 µM (inactive)
